Patent US20210206773A1, “DRUG FOR TREATING DISORDERS OF CORNEAL EPITHELIUM” (EA PHARMA CO., LTD., priority 2014, published 2021)

Columns and labels:
[1] = system: HCE cells; test: Suppressive effect on apoptosis under hyperosmotic conditions (caspase-3-like activity, fluorescent peptide substrate); type: cell-based, human; conditions: 160 mM NaCl, 3 hours and 6 hours, FIG. 5
Experimental: HCE cells were cultured in a hyperosmotic medium containing Compound (1aa) and 160 mM NaCl. After culturing for 3 hours and 6 hours, caspase-3-like activity, which is a marker for apoptosis, was measured using a fluorescent peptide substrate, and the results are presented in FIG. 5. The value is expressed as average value±S.D. (triplicate), **P<0.01, and the term n.s. means “not significant”.

[2] = system: dry eye model rat; test: Therapeutic effect on corneal surface injury in dry eye model rat (lacrimal glands removed); type: in vivo; conditions: 5 μL of aqueous solution 0.05 w/v % (1.5 mM) three times a day, 1 to 5 weeks after removal of lacrimal glands
Experimental: The lacrimal glands of a rat were removed, and a dry eye model was produced. After 1 to 5 weeks from the removal of lacrimal glands, 5 μL of an aqueous solution containing Compound (1aa) (0.05 w/v %, 1.5 mM) was administered to the rat three times a day. The value is expressed as average value±S.E.M., *P<0.05; and **P<0.01.

[3] = system: muc1 and muc16 messenger RNAs in HCE cells; test: Change in amount of expression of mucin messenger RNA (real time RT-PCR); type: cell-based, human; conditions: 3 hours and 24 hours, FIG. 8
Experimental: HCE cells were cultured in a medium containing Compound (1aa). The amounts of expression of muc1 and muc16 messenger RNAs after culturing for 3 hours and 24 hours were measured by a real time RT-PCR method. Relative values of the amount of expression with respect to the amount of expression of actin messenger RNA were calculated, and the results are presented in FIG. 8. The value is expressed as average value±S.D. (triplicate), *P<0.05; and **P<0.01.

[4] = system: HCE cells (human corneal epithelial cells); test: Suppressive effect on cell injury caused by ethanol (MTT method); type: cell-based; conditions: 4 v/v % ethanol, FIG. 4
Experimental: HCE cells (human corneal epithelial cells) were cultured in a medium containing Compound (1aa) and 4 v/v % ethanol. The number of live cells was measured by the MTT method, and relative values of light absorbance with respect to the light absorbance of the control (absence of ethanol) were calculated. The value is expressed as average value±S.D. (n=3), *P<0.05; and **P<0.01.

[5] = system: HCE cells (human corneal epithelial cells); test: Suppressive effect on cell injury under hyperosmotic conditions (MTT method); type: cell-based; conditions: 24 hours, hyperosmotic medium with 150 mM NaCl and 160 mM NaCl, or 320 mM glucose, FIG. 1 to FIG. 3
Experimental: HCE cells (human corneal epithelial cells) were cultured for 24 hours in a hyperosmotic medium containing a compound of Formula (1aa) (hereinafter, Compound (1aa)) (as a hydrate). The medium was adjusted to fulfill the hyperosmotic conditions using 150 mM NaCl and 160 mM NaCl, or 320 mM glucose. The number of live cells was measured by the MTT method, and relative values of light absorbance with respect to the light absorbance of the control (isotonic pressure conditions) were calculated. The value is expressed as average value±S.D. (n=3), **P<0.01.

O=C1NCC2=C1[C@@H](c1ccccc1)N(C(=O)CO)[C@@H]1CCCC[C@H]1N2 [Compound (1aa), (1R,8R,10R)-9-(2-hydroxyacetyl)-8-phenyl-2,5,9-triazatricyclo[8.4.0.0^3,7]tetradeca-3(7)-en-6-one] was tested, and the “hyperosmotic stress-dependent apoptosis (caspase-3-like activity)” value [1] was “noticeably suppressed hyperosmotic stress-dependent apoptosis”, the “amount of lacrimal fluid (cotton thread test)” value ([2]; FIG. 6) was “increasing the amount of lacrimal fluid” and the “injury of the corneal surface (fluorescein scores)” value ([2]; FIG. 7) was “suppressed injury of the corneal surface”. For the same molecule, the “amount of expression of mucin (muc1 and muc16 messenger RNAs relative to actin messenger RNA)” value [3] was “increases the amount of expression of mucin”, the “survival rate of corneal epithelial cells with ethanol (number of live cells, relative light absorbance vs control)” value [4] was “noticeably suppressed the decrease in the survival rate of corneal epithelial cells” and the “survival rate of corneal epithelial cells under hyperosmotic conditions (number of live cells, relative light absorbance vs control)” value [5] was “noticeably suppressed the decrease in the survival rate of corneal epithelial cells”.
